Test results from ChEMBL document CHEMBL5291721, “A preclinical secondary pharmacology resource illuminates target-adverse drug reaction associations of marketed drugs” (Nat Commun, 2023).

How the values were obtained:
[1] = biological target: Adenosine receptor A2a (Homo sapiens, UniProt P29274)
[2] = biological target: T1, Alpha-2A adrenergic receptor (Homo sapiens, UniProt P08913); format: functional, cell-based
T1 sequence (P08913 whole entry): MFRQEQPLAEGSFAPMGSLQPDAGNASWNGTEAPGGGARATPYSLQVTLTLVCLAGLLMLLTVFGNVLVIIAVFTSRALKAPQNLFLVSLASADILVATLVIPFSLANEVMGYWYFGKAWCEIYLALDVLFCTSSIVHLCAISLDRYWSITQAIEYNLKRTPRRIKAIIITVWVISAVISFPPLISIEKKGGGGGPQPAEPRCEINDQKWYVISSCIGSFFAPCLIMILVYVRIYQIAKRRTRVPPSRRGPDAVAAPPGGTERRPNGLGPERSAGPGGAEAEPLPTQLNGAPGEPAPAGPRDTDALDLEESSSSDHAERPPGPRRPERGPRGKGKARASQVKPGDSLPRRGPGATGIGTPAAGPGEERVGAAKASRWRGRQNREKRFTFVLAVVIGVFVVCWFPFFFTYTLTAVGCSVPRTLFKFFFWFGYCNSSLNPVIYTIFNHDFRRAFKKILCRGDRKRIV

[3] = biological target: Vasopressin V1a receptor (Homo sapiens, UniProt P37288)
[4] = biological target: T2, Cholecystokinin receptor type A (Homo sapiens, UniProt P32238)
T2 sequence (P32238 whole entry): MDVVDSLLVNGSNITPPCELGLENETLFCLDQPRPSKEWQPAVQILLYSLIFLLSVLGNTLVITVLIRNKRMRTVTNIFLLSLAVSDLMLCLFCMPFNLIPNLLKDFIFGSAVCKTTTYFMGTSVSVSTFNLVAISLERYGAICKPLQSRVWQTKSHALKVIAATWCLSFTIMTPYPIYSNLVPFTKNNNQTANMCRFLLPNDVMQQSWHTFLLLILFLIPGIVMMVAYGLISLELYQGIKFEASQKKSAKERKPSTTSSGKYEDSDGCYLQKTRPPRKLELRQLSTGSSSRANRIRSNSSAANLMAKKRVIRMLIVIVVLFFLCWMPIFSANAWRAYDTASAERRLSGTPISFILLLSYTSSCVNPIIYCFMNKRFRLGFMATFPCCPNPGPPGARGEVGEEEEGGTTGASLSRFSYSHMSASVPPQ

[5] = biological target: Neuronal acetylcholine receptor subunit alpha-4 (Homo sapiens, UniProt P43681)
Chain of Neuronal acetylcholine receptor subunit alpha-4 (P43681 whole entry): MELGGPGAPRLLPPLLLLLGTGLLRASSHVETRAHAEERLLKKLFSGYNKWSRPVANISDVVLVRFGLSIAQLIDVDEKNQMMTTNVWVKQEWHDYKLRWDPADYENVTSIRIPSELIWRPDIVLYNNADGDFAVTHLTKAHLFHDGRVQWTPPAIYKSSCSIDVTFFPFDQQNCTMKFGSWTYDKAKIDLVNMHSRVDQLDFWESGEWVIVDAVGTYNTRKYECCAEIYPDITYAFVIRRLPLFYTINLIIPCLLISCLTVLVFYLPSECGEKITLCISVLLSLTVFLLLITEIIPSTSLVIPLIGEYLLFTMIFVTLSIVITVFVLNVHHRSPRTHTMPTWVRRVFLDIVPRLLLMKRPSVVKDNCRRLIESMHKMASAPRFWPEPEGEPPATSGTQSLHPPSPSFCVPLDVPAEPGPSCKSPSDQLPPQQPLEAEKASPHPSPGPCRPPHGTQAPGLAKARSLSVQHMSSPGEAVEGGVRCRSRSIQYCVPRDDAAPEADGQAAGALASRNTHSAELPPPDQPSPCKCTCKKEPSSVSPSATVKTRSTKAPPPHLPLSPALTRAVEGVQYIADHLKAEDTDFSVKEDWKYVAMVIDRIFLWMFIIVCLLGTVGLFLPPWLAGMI

[6] = biological target: D(1A) dopamine receptor (Homo sapiens, UniProt P21728); format: functional, cell-based
[7] = biological target: Gamma-aminobutyric acid receptor subunit alpha-1 (Rattus norvegicus, UniProt P62813); format: functional
Chain of Gamma-aminobutyric acid receptor subunit alpha-1 (P62813 whole entry): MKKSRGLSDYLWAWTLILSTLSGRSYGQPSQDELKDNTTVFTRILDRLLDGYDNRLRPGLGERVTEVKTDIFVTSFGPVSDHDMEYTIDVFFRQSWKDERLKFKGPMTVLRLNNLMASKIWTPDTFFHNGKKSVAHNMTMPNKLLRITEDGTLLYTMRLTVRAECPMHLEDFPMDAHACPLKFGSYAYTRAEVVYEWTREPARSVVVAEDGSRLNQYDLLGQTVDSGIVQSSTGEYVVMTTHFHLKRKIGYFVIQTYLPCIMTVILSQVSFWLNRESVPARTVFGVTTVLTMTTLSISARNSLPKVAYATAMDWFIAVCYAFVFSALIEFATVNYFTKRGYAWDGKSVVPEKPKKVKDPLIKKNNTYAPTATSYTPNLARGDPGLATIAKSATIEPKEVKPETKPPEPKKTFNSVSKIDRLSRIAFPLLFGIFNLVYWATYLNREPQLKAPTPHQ

[8] = biological target: Growth hormone secretagogue receptor type 1 (Homo sapiens, UniProt Q92847)
Chain of Growth hormone secretagogue receptor type 1 (Q92847 whole entry): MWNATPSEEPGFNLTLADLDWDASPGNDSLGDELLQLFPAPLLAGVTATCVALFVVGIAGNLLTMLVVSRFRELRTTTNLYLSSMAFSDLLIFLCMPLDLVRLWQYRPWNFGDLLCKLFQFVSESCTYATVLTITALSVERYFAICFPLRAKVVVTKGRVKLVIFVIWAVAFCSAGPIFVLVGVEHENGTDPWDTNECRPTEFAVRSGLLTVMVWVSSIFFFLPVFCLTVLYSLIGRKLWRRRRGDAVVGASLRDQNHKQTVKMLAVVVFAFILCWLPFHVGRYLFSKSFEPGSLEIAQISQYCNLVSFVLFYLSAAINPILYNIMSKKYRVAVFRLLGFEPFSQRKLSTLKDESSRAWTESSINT

[9] = biological target: 5-hydroxytryptamine receptor 2B (Homo sapiens, UniProt P41595); format: functional, cell-based
Chain of 5-hydroxytryptamine receptor 2B (P41595 whole entry): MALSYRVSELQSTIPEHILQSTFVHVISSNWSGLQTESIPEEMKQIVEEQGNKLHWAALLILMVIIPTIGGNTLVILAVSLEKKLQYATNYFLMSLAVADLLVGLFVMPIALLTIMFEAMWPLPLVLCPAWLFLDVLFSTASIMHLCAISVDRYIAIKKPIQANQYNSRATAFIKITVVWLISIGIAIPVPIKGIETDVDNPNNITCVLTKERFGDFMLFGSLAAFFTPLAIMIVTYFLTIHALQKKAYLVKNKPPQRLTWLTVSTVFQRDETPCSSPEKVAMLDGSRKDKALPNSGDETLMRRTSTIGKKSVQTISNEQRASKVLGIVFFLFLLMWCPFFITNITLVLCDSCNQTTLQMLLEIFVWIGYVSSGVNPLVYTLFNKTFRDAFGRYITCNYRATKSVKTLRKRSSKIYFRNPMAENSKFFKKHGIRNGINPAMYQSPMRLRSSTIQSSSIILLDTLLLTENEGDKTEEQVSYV

[10] = biological target: Melanocortin receptor 3 (Homo sapiens, UniProt P41968)
Chain of Melanocortin receptor 3 (P41968 whole entry): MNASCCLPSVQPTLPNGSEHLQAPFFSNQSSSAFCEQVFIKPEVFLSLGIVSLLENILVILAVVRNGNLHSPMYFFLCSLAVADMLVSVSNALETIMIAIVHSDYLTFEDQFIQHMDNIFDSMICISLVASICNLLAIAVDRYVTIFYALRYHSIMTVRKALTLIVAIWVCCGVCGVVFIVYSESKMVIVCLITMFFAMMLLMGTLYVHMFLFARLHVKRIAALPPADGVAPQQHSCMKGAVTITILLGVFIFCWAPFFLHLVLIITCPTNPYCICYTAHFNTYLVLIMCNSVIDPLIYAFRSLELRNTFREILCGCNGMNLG

[11] = biological target: Motilin receptor (Homo sapiens, UniProt O43193)
Chain of Motilin receptor (O43193 whole entry): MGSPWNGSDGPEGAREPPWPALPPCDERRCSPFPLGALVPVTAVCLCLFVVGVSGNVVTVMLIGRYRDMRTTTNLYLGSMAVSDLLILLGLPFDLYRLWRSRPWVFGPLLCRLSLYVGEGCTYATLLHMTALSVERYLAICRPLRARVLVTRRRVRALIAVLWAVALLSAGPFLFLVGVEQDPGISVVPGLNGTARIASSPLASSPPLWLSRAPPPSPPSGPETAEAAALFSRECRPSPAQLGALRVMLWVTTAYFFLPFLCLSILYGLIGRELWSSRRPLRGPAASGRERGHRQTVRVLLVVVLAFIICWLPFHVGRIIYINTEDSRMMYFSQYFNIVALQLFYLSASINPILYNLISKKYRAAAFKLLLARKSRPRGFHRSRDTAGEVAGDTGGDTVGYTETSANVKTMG

[12] = biological target: Delta-type opioid receptor (Homo sapiens, UniProt P41143)
Chain of Delta-type opioid receptor (P41143 whole entry): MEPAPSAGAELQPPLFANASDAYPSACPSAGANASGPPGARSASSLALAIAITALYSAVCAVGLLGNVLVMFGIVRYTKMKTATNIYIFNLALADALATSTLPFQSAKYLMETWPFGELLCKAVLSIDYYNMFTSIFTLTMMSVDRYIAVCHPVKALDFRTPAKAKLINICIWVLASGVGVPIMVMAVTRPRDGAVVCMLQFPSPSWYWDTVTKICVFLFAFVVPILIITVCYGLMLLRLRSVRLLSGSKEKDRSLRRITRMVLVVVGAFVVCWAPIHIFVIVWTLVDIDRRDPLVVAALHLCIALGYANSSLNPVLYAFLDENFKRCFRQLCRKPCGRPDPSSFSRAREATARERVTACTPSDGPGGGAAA

[13] = biological target: 3',5'-cyclic-AMP phosphodiesterase 4D (Homo sapiens, UniProt Q08499); format: functional
Chain of 3',5'-cyclic-AMP phosphodiesterase 4D (Q08499 whole entry): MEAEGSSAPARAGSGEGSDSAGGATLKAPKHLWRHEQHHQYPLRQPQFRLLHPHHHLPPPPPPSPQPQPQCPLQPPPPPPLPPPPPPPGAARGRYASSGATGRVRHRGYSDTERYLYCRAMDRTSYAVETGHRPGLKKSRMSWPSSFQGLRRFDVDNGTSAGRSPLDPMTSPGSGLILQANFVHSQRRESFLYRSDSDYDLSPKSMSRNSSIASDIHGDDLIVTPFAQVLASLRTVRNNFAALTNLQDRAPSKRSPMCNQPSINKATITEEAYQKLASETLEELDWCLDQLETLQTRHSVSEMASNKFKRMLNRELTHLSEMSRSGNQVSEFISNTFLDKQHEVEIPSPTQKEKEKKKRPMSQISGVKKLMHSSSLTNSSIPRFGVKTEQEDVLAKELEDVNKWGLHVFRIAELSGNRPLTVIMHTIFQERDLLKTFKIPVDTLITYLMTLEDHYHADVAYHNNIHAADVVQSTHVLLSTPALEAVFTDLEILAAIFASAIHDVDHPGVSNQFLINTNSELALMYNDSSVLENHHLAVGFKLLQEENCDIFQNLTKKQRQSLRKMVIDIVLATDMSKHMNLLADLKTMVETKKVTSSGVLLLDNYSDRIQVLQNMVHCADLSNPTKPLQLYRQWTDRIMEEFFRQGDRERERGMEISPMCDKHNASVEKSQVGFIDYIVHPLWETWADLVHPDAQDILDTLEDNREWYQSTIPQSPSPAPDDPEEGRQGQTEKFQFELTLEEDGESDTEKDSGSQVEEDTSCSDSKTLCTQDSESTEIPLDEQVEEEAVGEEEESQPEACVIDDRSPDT

[14] = biological target: T3, Prostaglandin G/H synthase 1 (Rattus norvegicus, UniProt Q63921); format: functional
T3 sequence (Q63921 whole entry): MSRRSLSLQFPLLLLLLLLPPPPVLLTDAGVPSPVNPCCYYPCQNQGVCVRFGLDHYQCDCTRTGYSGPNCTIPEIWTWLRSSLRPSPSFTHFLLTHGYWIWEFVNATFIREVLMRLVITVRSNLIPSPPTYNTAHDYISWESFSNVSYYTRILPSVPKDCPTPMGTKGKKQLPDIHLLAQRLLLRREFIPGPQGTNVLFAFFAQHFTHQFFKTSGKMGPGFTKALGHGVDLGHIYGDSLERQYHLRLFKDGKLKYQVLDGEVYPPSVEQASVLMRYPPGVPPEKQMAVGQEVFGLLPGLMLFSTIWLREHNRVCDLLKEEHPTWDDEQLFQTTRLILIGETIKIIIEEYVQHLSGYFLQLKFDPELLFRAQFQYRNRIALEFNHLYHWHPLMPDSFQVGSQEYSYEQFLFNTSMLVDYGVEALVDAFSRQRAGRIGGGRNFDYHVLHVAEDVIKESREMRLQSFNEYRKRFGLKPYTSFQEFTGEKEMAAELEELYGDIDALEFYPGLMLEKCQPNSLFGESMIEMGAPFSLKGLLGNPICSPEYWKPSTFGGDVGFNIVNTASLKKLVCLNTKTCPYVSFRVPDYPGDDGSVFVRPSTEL

[15] = biological target: T4, Equilibrative nucleoside transporter 1 (Homo sapiens, UniProt Q99808)
T4 sequence (Q99808 whole entry): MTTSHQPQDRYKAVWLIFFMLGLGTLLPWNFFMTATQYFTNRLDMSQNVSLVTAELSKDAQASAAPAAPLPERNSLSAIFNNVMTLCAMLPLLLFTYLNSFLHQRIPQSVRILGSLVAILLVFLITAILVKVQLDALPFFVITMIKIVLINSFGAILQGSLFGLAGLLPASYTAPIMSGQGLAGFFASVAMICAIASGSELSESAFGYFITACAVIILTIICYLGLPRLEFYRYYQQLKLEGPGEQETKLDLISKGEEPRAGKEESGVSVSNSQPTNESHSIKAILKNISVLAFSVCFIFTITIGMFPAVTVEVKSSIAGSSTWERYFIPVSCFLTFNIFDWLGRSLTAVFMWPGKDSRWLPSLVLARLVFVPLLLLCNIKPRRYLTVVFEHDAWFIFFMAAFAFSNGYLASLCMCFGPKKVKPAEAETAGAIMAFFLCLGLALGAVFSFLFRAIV

[16] = biological target: Sodium-dependent noradrenaline transporter (Homo sapiens, UniProt P23975)
Chain of Sodium-dependent noradrenaline transporter (P23975 whole entry): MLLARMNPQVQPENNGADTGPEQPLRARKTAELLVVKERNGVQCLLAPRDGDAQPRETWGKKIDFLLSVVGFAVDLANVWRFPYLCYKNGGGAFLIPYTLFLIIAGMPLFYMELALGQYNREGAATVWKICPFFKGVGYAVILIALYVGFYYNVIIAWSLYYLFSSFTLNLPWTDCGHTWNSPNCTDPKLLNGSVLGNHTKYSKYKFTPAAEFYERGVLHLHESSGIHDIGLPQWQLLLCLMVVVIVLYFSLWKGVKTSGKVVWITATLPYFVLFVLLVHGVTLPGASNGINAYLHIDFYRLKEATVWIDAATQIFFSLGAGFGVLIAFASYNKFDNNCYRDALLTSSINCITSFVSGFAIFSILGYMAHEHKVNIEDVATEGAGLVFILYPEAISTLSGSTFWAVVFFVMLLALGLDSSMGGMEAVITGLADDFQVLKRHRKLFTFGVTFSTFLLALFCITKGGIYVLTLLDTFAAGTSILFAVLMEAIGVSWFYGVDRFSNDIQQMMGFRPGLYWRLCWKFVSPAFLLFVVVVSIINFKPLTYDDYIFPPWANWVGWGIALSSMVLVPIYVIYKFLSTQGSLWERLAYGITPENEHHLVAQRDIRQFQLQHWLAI

[17] = biological target: cGMP-inhibited 3',5'-cyclic phosphodiesterase 3A (Homo sapiens, UniProt Q14432); format: functional
[18] = biological target: D(3) dopamine receptor (Homo sapiens, UniProt P35462)
Chain of D(3) dopamine receptor (P35462 whole entry): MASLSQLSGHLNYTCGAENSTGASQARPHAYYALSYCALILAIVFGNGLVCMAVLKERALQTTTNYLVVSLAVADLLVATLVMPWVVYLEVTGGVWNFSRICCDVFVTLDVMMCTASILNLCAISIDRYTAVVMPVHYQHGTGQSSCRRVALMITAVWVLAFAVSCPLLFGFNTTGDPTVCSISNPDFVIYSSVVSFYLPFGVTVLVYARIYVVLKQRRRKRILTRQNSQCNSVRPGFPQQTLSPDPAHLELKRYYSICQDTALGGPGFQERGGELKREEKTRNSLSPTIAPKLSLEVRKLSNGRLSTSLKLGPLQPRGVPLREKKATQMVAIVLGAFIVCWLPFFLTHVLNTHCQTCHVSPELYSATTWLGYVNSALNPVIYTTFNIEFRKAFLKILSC
Also: assay procedure not described here.

| Structure (SMILES) | AC50 [1] | AC50 [2] | AC50 [3] | AC50 [4] | AC50 [5] | AC50 [6] | AC50 [7] | AC50 [8] | AC50 [9] | AC50 [10] | AC50 [11] | AC50 [12] | AC50 [13] | AC50 [14] | AC50 [15] | AC50 [16] | AC50 [17] | AC50 [18] |
| --- | --- | --- | --- | --- | --- | --- | --- | --- | --- | --- | --- | --- | --- | --- | --- | --- | --- | --- |
| CO[C@H]1C[C@@H]2CC[C@@H](C)[C@@](O)(O2)C(=O)C(=O)N2CCCC[C@H]2C(=O)O[C@H]([C@H](C)C[C@@H]2CC[C@@H](O)[C@H](OC)C2)CC(=O)[C@H](C)/C=C(\C)[C@@H](O)[C@@H](OC)C(=O)[C@H](C)C[C@H](C)/C=C/C=C/C=C/1C [SIROLIMUS] | > 30 µM | > 10 µM | > 30 µM | > 30 µM | > 10 µM | > 10 µM | > 10 µM | > 30 µM | > 10 µM | > 30 µM | > 10 µM | > 30 µM | > 30 µM | > 30 µM | 6.8 µM | > 30 µM | > 30 µM | 0.87 µM |
| Cc1cn([C@H]2C=C[C@@H](CO)O2)c(=O)[nH]c1=O [STAVUDINE] | > 30 µM | > 10 µM | > 10 µM | > 30 µM | > 10 µM | > 10 µM | > 10 µM | > 30 µM | > 10 µM | > 30 µM | > 10 µM | > 10 µM | > 30 µM | > 30 µM | > 30 µM | > 10 µM | > 30 µM | > 10 µM |
| Cn1nnc2c(C(N)=O)ncn2c1=O [TEMOZOLOMIDE] | > 30 µM | > 30 µM | > 30 µM | > 30 µM | > 30 µM | > 30 µM | > 30 µM | > 30 µM | > 30 µM | > 30 µM | > 30 µM | > 30 µM | > 30 µM | > 30 µM | > 30 µM | > 30 µM | > 30 µM | > 30 µM |
| O=C(O[C@H]1C[C@H]2CC[C@@H](C1)[N+]21CCCC1)C(O)(c1ccccc1)c1ccccc1 [TROSPIUM] | > 30 µM | > 30 µM | > 30 µM | > 30 µM | > 30 µM | > 30 µM | > 30 µM | > 30 µM | > 30 µM | > 30 µM | > 30 µM | > 30 µM | > 30 µM | > 30 µM | > 30 µM | > 30 µM | > 30 µM | > 30 µM |
| N[C@@H]1[C@H]2CN(c3nc4c(cc3F)c(=O)c(C(=O)O)cn4-c3ccc(F)cc3F)C[C@@H]12 [TROVAFLOXACIN] | > 30 µM | > 30 µM | > 30 µM | > 30 µM | > 30 µM | > 30 µM | > 30 µM | > 30 µM | > 30 µM | > 30 µM | > 30 µM | > 30 µM | > 30 µM | > 30 µM | > 30 µM | > 30 µM | > 30 µM | > 30 µM |
| Nc1ccn([C@H]2CC[C@@H](CO)O2)c(=O)n1 [ZALCITABINE] | > 10 µM | > 10 µM | > 10 µM | > 10 µM | > 10 µM | > 10 µM | > 10 µM | > 10 µM | > 10 µM | > 10 µM | > 10 µM | > 30 µM | > 30 µM | > 10 µM | > 10 µM | > 10 µM | > 30 µM | > 10 µM |
| Cc1cn([C@H]2C[C@H](N=[N+]=[N-])[C@@H](CO)O2)c(=O)[nH]c1=O [ZIDOVUDINE] | > 30 µM | > 10 µM | > 10 µM | > 30 µM | > 10 µM | > 10 µM | > 10 µM | > 30 µM | > 10 µM | > 30 µM | > 10 µM | > 30 µM | > 30 µM | > 30 µM | > 30 µM | > 10 µM | > 30 µM | > 10 µM |
| NS(=O)(=O)Cc1noc2ccccc12 [ZONISAMIDE] | > 10 µM | > 10 µM | > 10 µM | > 10 µM | > 10 µM | > 10 µM | > 10 µM | > 10 µM | > 10 µM | > 10 µM | > 10 µM | > 30 µM | > 30 µM | > 10 µM | > 10 µM | > 10 µM | > 30 µM | > 30 µM |
